# Data reported in US10227323B2, “Glucosylceramide synthase inhibitors for the treatment of diseases” (BIOMARIN PHARMACEUTICAL INC., priority 2013, dated 2019).
# Biological target: T1, GCS (Canis lupus familiaris, UniProt A0A8I3MXG6)
# T1 sequence (A0A8I3MXG6 1-394): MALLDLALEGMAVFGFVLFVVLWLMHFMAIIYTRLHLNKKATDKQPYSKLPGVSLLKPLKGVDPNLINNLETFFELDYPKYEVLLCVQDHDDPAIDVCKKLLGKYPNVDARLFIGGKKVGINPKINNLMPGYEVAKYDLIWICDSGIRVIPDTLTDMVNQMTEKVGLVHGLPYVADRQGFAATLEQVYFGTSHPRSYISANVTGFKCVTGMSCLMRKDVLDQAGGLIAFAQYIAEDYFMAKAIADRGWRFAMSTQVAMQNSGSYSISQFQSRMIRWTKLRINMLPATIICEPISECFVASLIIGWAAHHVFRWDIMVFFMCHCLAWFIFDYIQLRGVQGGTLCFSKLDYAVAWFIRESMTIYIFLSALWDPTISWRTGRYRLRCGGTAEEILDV
# Assay: Assay 1: GCS Enzymatic Assay (MDCK cell lysate, C6-NBD-Ceramide, LC/MS)
# Format: biochemical, canine
# Conditions: Table 3; MDCK cell lysate; read-out: IC50 (nM) generated from Assay 1
# In short: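 LC/MS/MS measurement of glucosylceramide and NBD-ceramide after a 1 h, 37 °C reaction with 100 μM UDP-glucose and 10 μM C6-NBD-ceramide gave IC50s or percent inhibition.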
row,Compound,IC50
1,"C#Cc1ccc(C(=O)C(=O)N[C@H](CN2CCCC2)[C@H](O)c2ccc(OC3CC3)cc2)cc1 [Example 401, N-((1R,2R)-1-(4-cyclopropoxyphenyl)-1-hydroxy-3-(pyrrolidin-1-yl)propan-2-yl)-2-(4-ethynylphenyl)-2-oxoacetamide]",50 to 5000 nM
2,"O=C(N[C@H](CN1CCCC1)[C@H](O)c1ccc(OC2CC2)cc1)C(F)(F)CCc1ccc2cc(Cl)ccc2c1 [Example 402, 4-(6-chloronaphthalen-2-yl)-N-((1R,2R)-1-(4-cyclopropoxyphenyl)-1-hydroxy-3-(pyrrolidin-1-yl)propan-2-yl)-2,2-difluorobutanamide]",50 to 5000 nM
3,"O=C(N[C@H](CN1CCCC1)[C@H](O)c1ccc(OC(F)F)cc1)C(=O)c1cc2ccc(Cl)cc2s1 [Example 405, 2-(6-chlorobenzo[b]thiophen-2-yl)-N-((1R,2R)-1-(4-(difluoromethoxy)phenyl)-1-hydroxy-3-(pyrrolidin-1-yl)propan-2-yl)-2-oxoacetamide]",50 to 5000 nM

# The remaining lines, values ahead:
row,IC50,Compound
1,< 50 nM,"O=C(N[C@H](CN1CCCC1)[C@H](O)c1ccc(OC2CC2)cc1)C(=O)c1cc2ccc(Cl)cc2s1 [Example 399, 2-(6-chlorobenzo[b]thiophen-2-yl)-N-((1R,2R)-1-(4-cyclopropoxyphenyl)-1-hydroxy-3-(pyrrolidin-1-yl)propan-2-yl)-2-oxoacetamide]"
2,< 50 nM,"O=C(N[C@H](CN1CCCC1)[C@H](O)c1ccc(OC2CC2)c(Cl)c1)C(=O)c1ccc(-n2cccn2)cc1 [Example 400, 2-(4-(1H-pyrazol-1-yl)phenyl)-N-((1R,2R)-1-(3-chloro-4-cyclopropoxyphenyl)-1-hydroxy-3-(pyrrolidin-1-yl)propan-2-yl)-2-oxoacetamide]"
3,< 50 nM,"O=C(N[C@H](CN1CCCC1)[C@H](O)c1ccc(OC2CC2)c(Cl)c1)C(=O)c1ccc(-n2nccn2)cc1 [Example 403, 2-(4-(2H-1,2,3-triazol-2-yl)phenyl)-N-((1R,2R)-1-(3-chloro-4-cyclopropoxyphenyl)-1-hydroxy-3-(pyrrolidin-1-yl)propan-2-yl)-2-oxoacetamide]"
4,< 50 nM,"CN(C(=O)C(=O)c1ccc(-c2ccc(F)cc2)cc1)[C@H](CN1CCCC1)[C@H](O)c1ccc(OC2CC2)c(F)c1 [Example 404, N-((1R,2R)-1-(4-cyclopropoxy-3-fluorophenyl)-1-hydroxy-3-(pyrrolidin-1-yl)propan-2-yl)-2-(4′-fluoro-[1,1′-biphenyl]-4-yl)-N-methyl-2-oxoacetamide]"

# Same assay, conditions: Table 3; values marked *; MDCK cell lysate
row,Compound,% inhibition generated from Assay 1
1,"O=C(N[C@H](CN1CCCC1)[C@H](O)c1ccc(OC2CC2)c(Cl)c1)/C(CCc1ccc2cc(F)ccc2c1)=N/O [Example 406, (E)-N-((1R,2R)-1-(3-chloro-4-cyclopropoxyphenyl)-1-hydroxy-3-(pyrrolidin-1-yl)propan-2-yl)-4-(6-fluoronaphthalen-2-yl)-2-(hydroxyimino)butanamide]",A* (the compound had a % inhibition of a percent inhibition of greater than or equal to about 50%)
